Assay results: ChEMBL document CHEMBL1201862, “PubChem BioAssay data set” (2004)
Active and inactive are the calls of the source.

Columns and labels:
Aminopeptidase N = target: T1, Aminopeptidase N (Plasmodium falciparum FcB1/Columbia, UniProt O96935); test: P. falciparum M1AAP inhibitors, biochemical, fluorogenic H-Leu-NHMec substrate, 1536-well (AID 1445); design: species or system Plasmodium falciparum 3D7, 3D7
T1 sequence (O96935 whole entry): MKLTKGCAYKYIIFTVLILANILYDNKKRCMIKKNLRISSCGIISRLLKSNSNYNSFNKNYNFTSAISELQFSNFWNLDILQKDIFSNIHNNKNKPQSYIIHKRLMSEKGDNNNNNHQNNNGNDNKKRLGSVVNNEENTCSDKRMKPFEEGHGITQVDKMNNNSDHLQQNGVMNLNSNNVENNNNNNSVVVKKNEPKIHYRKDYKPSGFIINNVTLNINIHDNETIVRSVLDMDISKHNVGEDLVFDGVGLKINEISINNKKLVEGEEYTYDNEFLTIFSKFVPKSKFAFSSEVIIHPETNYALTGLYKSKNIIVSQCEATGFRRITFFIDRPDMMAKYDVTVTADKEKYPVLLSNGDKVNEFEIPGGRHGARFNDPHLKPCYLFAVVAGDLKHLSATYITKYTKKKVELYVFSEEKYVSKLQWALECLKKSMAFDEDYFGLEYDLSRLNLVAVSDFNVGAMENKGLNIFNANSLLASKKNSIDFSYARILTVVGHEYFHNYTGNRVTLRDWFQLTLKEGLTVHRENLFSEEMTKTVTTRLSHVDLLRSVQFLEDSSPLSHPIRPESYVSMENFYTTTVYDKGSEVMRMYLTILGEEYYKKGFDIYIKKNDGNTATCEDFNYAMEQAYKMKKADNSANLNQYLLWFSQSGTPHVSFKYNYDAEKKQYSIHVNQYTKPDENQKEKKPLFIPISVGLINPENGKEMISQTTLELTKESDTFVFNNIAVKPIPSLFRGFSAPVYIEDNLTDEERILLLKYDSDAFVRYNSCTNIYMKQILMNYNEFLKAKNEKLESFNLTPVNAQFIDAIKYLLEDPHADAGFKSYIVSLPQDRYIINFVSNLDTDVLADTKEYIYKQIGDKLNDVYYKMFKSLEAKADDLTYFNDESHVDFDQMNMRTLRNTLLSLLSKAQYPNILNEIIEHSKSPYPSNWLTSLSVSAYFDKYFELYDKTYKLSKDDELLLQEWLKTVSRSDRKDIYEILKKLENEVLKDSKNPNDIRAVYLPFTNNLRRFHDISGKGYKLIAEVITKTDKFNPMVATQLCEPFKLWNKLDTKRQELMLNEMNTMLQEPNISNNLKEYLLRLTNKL

H9c2 = test: cells; format: functional, cell-based; settings: Rattus norvegicus, H9c2, Myocardium;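 also: confirmatory concentration-response retest of ultra-high-throughput screening hits for modulation of myocardial damage; cell death induced by hydrogen peroxide oxidative stress; compound pretreatment for 60 min then peroxide exposure for 2 h; potency is for protecting the cells against peroxide damage rather than for killing them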
[1] = target: T2, RNA-binding protein pos-1 (Caenorhabditis elegans, UniProt G5EF15); test: inhibitors of POS-1/mex-3 RNA binding, dose response, biochemical, fluorescence polarization (AID 1964);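 also: purified POS-1 fused to maltose binding protein made in E. coli; potency of compounds blocking POS-1 binding to fluorescent RNA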
T2 sequence (G5EF15 whole entry): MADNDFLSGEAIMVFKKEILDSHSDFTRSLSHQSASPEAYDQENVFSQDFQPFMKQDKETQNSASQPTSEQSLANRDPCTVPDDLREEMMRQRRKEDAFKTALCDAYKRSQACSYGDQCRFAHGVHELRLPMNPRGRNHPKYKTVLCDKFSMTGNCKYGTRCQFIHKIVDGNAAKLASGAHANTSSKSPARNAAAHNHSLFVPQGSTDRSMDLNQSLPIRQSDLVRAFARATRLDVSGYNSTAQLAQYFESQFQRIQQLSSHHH

[2] = target: T3, Zinc finger protein mex-5 (Caenorhabditis elegans, UniProt Q9XUB2); test: MEX-5/TCR-2 RNA interaction inhibitors, dose response, biochemical, C. elegans, fluorescence polarization (AID 1960)
T3 sequence (Q9XUB2 whole entry): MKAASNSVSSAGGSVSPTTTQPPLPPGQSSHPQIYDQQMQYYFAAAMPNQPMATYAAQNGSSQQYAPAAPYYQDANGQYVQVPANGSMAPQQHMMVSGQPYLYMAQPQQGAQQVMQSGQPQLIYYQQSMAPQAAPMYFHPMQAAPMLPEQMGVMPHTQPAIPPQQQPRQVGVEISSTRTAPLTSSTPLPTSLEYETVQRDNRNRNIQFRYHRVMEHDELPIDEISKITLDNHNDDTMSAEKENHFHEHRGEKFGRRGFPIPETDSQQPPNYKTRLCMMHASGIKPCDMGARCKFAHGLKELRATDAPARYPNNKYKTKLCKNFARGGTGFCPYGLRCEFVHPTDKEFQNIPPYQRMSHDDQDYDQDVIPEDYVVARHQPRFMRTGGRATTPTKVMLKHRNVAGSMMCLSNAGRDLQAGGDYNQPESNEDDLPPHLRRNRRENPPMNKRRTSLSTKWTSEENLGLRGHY

[3] = target: Glucose-6-phosphate 1-dehydrogenase (Homo sapiens, UniProt P11413); test: human G6PD enzyme inhibitors, dose response, selectivity assay for P. falciparum G6PD inhibitor project, biochemical, fluorescence (AID 504792); format: functional
[4] = target: FAD-linked sulfhydryl oxidase ALR (Homo sapiens, UniProt P55789); test: inhibitors of human ALR sulfhydryl oxidase, dose response, biochemical, H2O2 detection, luminescence, cherry-pick (AID 493248)
[5] = growth suppression of PTEN-null colon cells, dose response, cell-based, HCT116 PTEN knockout (AID 1047); format: functional;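 also: HCT116 colon tumor cells with PTEN knocked out; cells exposed to compound for 60 hours before readout; potency for loss of cell viability measured by luminescence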
[6] = growth suppression of beta-catenin-knockout colon cells, dose response, cell-based, HCT116, human colon tumor (AID 1045); format: functional;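 also: HCT116 colon tumor cells with beta catenin knocked out; cells exposed to compound for 60 hours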
[7] = target: T4, Polyadenylate-binding protein 1 (Homo sapiens, UniProt P11940); test: PABP1 MLLE–PAM2 interaction inhibitors, dose response, miRNA deadenylation inhibitor project, biochemical, fluorescence polarization, Cy5-PAM2 peptide, secondary (AID 602260); format: functional; settings: read-out: IC50_Mean
[8] = target: T4, Polyadenylate-binding protein 1; test: PABP1 MLLE–PAM2 binding inhibitor potency, dose response, biochemical, fluorescence polarization, FITC-PAM2 peptide (AID 602259); format: functional; settings: read-out: IC50_Mean
Large T antigen = Large T antigen (Simian virus 40, UniProt P03070); format: functional, Betapolyomavirus macacae;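 also: Confirmatory-stage PubChem screen for compounds that inhibit SV40 T antigen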
[9] = target: T5, Heat shock factor protein 1 (Mus musculus, UniProt P38532); test: HSF1 potentiators in luciferase reporter cells, confirmation, cell-based, NIH3T3, luminescence, dose retest (AID 435004); format: functional;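 also: stress induced by proteasome inhibitor MG132 added 30 min after compound; luciferase reporter driven by HSF1 response element in NIH3T3 cells; actives raise luminescence as potentiators of the MG132 stress response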
T5 sequence (P38532 whole entry): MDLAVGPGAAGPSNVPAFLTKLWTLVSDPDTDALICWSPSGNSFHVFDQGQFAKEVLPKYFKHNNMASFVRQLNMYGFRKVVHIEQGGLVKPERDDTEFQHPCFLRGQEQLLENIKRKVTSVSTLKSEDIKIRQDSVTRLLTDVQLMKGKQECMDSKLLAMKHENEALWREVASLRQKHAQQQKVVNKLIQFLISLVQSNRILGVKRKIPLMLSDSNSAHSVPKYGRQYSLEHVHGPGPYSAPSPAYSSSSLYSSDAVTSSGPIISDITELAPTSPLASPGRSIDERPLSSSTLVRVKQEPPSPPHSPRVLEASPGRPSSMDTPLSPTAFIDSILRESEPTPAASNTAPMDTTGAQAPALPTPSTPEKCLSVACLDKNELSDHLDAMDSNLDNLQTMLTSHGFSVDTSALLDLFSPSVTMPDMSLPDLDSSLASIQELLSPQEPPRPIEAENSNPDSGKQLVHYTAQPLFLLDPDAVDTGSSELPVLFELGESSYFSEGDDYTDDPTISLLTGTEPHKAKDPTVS

[10] = test system: Streptococcus sp. 'group A'; test: growth inhibition of control SK(-) GAS strain, dose response, counter-screen for streptokinase expression inhibitor project, luminescence, kanamycin, BacTiterGlo, confirmation (AID 1900); format: functional, organism-based
Streptococcus = test: Group A Streptococcus viability loss, dose response, counter-screen for streptokinase expression inhibitor project, luminescence, BacTiterGlo (AID 1915); format: functional, organism-based;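 also: potency for reduction of bacterial viability or growth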
Cytochrome P450 2D6 = Cytochrome P450 2D6 (Homo sapiens, UniProt P10635);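 also: CYP2D6 member of a cytochrome P450 panel assay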
Sequence of Cytochrome P450 2D6 (P10635 whole entry): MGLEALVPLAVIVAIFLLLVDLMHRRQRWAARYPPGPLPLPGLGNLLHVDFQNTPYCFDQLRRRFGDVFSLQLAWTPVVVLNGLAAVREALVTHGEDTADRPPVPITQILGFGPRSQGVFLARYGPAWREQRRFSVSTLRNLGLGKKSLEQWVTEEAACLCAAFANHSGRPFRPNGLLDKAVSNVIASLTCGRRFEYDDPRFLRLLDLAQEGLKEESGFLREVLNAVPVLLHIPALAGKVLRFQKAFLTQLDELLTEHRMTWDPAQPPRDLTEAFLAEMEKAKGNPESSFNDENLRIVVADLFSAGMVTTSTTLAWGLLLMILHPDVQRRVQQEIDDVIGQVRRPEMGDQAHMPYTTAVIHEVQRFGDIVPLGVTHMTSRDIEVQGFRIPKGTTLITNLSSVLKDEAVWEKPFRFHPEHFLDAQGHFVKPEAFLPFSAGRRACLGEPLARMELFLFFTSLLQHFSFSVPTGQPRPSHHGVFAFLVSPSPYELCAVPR

Sequence of FAD-linked sulfhydryl oxidase ALR (P55789 whole entry): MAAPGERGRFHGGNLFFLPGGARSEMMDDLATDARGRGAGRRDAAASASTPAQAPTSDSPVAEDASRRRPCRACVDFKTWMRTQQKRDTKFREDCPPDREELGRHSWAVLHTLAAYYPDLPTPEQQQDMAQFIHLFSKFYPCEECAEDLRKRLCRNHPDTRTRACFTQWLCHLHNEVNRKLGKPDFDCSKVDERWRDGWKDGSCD
Sequence of Glucose-6-phosphate 1-dehydrogenase (P11413 whole entry): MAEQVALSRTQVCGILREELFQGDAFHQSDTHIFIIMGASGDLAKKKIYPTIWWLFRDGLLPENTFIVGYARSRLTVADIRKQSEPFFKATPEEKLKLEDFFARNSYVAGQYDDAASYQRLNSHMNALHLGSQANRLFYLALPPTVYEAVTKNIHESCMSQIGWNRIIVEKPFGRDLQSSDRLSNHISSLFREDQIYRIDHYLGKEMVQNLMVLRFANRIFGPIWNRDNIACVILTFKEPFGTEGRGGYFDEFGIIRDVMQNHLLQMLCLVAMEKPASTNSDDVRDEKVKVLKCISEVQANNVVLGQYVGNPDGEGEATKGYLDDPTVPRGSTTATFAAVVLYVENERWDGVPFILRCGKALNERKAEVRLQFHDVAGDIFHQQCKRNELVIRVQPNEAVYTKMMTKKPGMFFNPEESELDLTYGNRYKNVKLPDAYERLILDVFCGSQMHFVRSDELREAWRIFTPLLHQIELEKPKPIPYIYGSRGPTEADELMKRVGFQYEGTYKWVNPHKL
T4 sequence (P11940 whole entry): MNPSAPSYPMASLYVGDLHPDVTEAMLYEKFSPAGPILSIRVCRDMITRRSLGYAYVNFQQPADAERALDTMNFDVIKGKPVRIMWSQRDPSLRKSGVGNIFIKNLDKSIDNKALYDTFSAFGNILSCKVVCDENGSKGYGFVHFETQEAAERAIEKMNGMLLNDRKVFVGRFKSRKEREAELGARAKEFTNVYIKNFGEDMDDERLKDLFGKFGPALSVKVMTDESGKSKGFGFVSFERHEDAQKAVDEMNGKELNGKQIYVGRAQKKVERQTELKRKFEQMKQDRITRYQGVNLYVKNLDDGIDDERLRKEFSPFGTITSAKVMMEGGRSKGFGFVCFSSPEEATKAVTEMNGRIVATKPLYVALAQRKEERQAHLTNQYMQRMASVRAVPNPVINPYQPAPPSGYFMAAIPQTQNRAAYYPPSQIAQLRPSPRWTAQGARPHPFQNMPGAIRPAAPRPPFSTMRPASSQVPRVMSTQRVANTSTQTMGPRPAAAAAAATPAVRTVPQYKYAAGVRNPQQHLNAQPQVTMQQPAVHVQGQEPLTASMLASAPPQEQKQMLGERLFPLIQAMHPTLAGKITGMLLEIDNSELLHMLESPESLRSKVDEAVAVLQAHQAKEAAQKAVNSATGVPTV
Sequence of Large T antigen (P03070 whole entry): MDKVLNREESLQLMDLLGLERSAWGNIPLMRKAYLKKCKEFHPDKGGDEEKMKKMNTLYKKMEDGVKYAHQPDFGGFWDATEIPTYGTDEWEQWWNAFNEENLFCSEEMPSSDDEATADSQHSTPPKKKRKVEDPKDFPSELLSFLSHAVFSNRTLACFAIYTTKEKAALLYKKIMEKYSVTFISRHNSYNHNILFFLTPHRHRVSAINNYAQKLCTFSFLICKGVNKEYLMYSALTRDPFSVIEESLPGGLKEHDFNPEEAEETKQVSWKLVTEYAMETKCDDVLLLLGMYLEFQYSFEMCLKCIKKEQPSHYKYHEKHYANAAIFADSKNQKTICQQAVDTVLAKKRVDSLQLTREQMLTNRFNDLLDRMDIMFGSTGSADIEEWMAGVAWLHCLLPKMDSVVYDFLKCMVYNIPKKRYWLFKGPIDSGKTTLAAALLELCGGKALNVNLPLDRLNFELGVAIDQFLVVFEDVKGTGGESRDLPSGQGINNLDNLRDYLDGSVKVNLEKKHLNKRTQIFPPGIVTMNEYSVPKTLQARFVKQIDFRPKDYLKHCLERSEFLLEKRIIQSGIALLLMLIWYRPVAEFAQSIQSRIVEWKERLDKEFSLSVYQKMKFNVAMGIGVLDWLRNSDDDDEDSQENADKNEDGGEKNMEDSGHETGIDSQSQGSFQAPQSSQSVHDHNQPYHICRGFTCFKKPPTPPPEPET

CNC(=O)c1cc2c(=O)n3cccc(C)c3nc2n(C(C)C)c1=N
IC50 (Aminopeptidase N): 65.6 µM (active)

CCOc1cc(C2C3=C(O)CCCC3=NC3=C2C(=O)CCC3)cc(Cl)c1O (stereo not given)
IC50 (Aminopeptidase N): 23.9 µM (active)

CC(=O)Nc1cccc(NC(=O)C2CCCN2C(=O)Nc2cccc(C)c2)c1 (stereo not given)
IC50 (Aminopeptidase N): 39.1 µM (active)

O=C(O)CSc1c(O)nc2ccc(Cl)cc2c1-c1ccccc1
IC50 (Aminopeptidase N): 41 µM (active)

COc1ccc(-c2cc(=O)c3ccccc3[nH]2)cc1
IC50 (H9c2): > 79 µM (inactive)

CC1(OC(=O)c2cnc3ccccc3n2)C(=O)C=C2C=C(C3CC3)OC=C2C1=O (stereo not given)
EC50 [1]: > 300 µM (not active) | EC50 [2]: > 300 µM (not active)

COc1ccc(N2C(=O)/C(=C/c3cccs3)NC2=S)cc1
IC50 [3]: > 80 µM (inactive)

CCN(CC)CCC(c1ccc(N(C)C)cc1)c1c(OC)cc(OC)c2ccc(=O)oc12 (stereo not given)
AC50 [4]: 3.28 µM (active)

COc1ccc(/C=C/C(=O)c2ccc(NC(=O)c3cccs3)cc2)cc1OC
EC50 [5]: 3.5 µM (active) | EC50 [6]: 3.01 µM (active)

O=C(Nc1nnc(S(=O)(=O)N2CCOCC2)s1)c1cccc(Br)c1
IC50 [3]: > 80 µM (inactive)

COc1cc(SC)ccc1C(=O)Nc1c(Cl)cncc1Cl
AC50 [4]: 0.867 µM (active)

CCOC(=O)c1nc(Nc2ccc(C(C)=O)cc2)c2ccccc2n1
IC50 (H9c2): 8.56 µM (active)

CC1(C)c2[nH]c3ccccc3c2C[C@@H]2C(=O)N(c3ccc(F)cc3F)C(=O)N21
EC50 [1]: > 300 µM (not active) | EC50 [2]: 46.8 µM (active)

C=CCn1c(S)nnc1-c1cccc(OC)c1
AC50 [4]: 7.27 µM (active)

Cn1c(O)nc2cc(Cl)cnc21
EC50 [1]: 27 µM (active) | EC50 [2]: 24.8 µM (active) | IC50 [7]: > 66 µM (inactive) | IC50 [8]: 35.1 µM (inactive)

COc1cccc(C(=O)NC2CCN(CC(=O)NCc3ccccc3OC)CC2)c1
IC50 (Aminopeptidase N): 26.9 µM (active)

CS(=O)(=O)N1CCc2cc(C(=O)Nc3ccc(O)cc3)ccc21
IC50 (Large T antigen): > 100 µM (active) | AC50 [4]: 3.92 µM (active)

COc1ccc(C(=O)Nc2sc3c(c2C(=O)O)CC(C)(C)OC3)cc1
IC50 [3]: > 80 µM (inactive)

COc1ccc2c(c1)O[C@H](c1ccc3c(c1)OCO3)[C@@H](OC(=O)N[C@H](C)C1CCCCC1)C2=O
EC50 [5]: 11.6 µM (active) | EC50 [6]: 10.4 µM (active)

CCCS(=O)(=O)N1CCCC(C(=O)NCCN(CC)c2ccccc2)C1 (stereo not given)
AC50 [4]: 0.33 µM (active)

NC(=O)c1nsc(C(=O)N(Cc2ccco2)C(C(=O)NCc2ccccc2)c2ccc(O)cc2)c1N (stereo not given)
IC50 (H9c2): > 79 µM (inactive)

CCOC(=O)c1c(C)[nH]c(C)c1C(=O)COc1ncnc2cc([N+](=O)[O-])ccc12
EC50 [9]: > 260 µM (inactive) | IC50 (H9c2): 26.4 µM (active)

CCC(=O)OC1(C)C(=O)C=C2C=C(c3ccc(C#N)cc3)OC=C2C1=O (stereo not given)
EC50 [1]: 85.4 µM (active) | EC50 [2]: 40.8 µM (active)

CC(C)n1cnc2cc(NCc3ccccc3O)ccc21
AC50 [4]: 1.44 µM (active)

O=C(Cn1c(SCc2ccccc2)nc2ccccc21)N1CCOCC1
IC50 (Aminopeptidase N): 48.7 µM (active)

CC(OC(=O)CCc1nc(O)c2ccccc2n1)C(=O)NCc1ccc2c(c1)OCO2 (stereo not given)
IC50 (H9c2): > 79 µM (inactive)

Cc1ccc(NC(=O)Nc2cccs2)cc1
AC50 [4]: 6.23 µM (active)

CC(=O)Nc1ccc(NS(=O)(=O)c2cc(-c3nnc(O)c4ccccc34)ccc2C)cc1
IC50 (H9c2): > 79 µM (inactive)

NS(=O)(=O)c1ccc(CCNc2ccn3nc(-c4ccc(OCCN5CCOCC5)cc4)cc3n2)cc1
IC50 (H9c2): > 79 µM (inactive)

Oc1c(Br)cc(Cl)cc1/C=N/c1ccccc1Br
IC50 (H9c2): > 79 µM (inactive)

Nc1nonc1-c1nc2ccccc2n1CC(=O)N/N=C/c1ccc(-c2cccc(C(=O)O)c2)o1
IC50 (Aminopeptidase N): 12.5 µM (active) | EC50 [10]: 4.28 µM (active) | EC50 (Streptococcus): 4.63 µM (active)

Cc1ccc([N+](=O)[O-])cc1/N=N/c1c(C)[nH]n(C(N)=S)c1=O
AC50 [4]: 5.04 µM (active)

Cc1ccsc1/C=N/NC(=O)c1cccc(S(=O)(=O)Nc2ccccc2Cl)c1
IC50 [3]: > 80 µM (inactive)

Cn1c(=O)c2c(nc(N/N=C/c3ccc(OC(=O)c4ccco4)cc3)n2Cc2ccccc2Cl)n(C)c1=O
EC50 [5]: 13.4 µM (active) | EC50 [6]: 14.6 µM (active)

COc1ccc(/C=N/NC(=O)CCCOc2ccc(Cl)cc2Cl)cc1[N+](=O)[O-]
EC50 [5]: 281 µM (active) | EC50 [6]: 59.7 µM (active) | AC50 (Cytochrome P450 2D6): 10 µM (inconclusive)
